Values quoted from earlier work in patent US20240108740A1, “THERAPEUTIC COMPOSITIONS INCLUDING SPN10 AND USES THEREOF” (Stealth BioTherapeutics Inc., priority 2022, published 2024).
Non-standard residues stand in square brackets, D forms with d.

Tests used:
[1] = system: cell stress recovery; settings: Mitchell et al., bioRxiv; cited from earlier work
[2] = system: several mammalian cell types; settings: energy-independent manner; Zhao et al. 2003; cited from earlier work

Substance | performance compared with SS-31 (cell culture assays, structure-activity analysis) [1] | penetration of the plasma membrane [2]
H-D-Arg-Tyr-Lys-Phe-NH2 (H-[dR]YKF-NH2; SMILES N=C(N)NCCC[C@@H](N)C(=O)N[C@@H](Cc1ccc(O)cc1)C(=O)N[C@@H](CCCCN)C(=O)N[C@@H](Cc1ccccc1)C(N)=O) [SPN4, reference compound] | consistently outperformed SS-31 | 
H-F[dR]FK-NH2 [SS-20, reference compound] | consistently outperformed SS-31 | 
H-2′,6′-Dmt-D-Arg-Phe-Lys-NH2 |  | readily penetrates the plasma membrane
